Patent USRE45471E1, “Pharmaceutical composition or combination drug” (Nanocarrier Co., Ltd., priority 2008, dated 2015)
Where a name gives a salt, the structure may show the parent alone.

Test system: CDDP-resistant human lung cancer MOR/CPR cells
Assay: In vitro cell growth inhibitory effect (WST method) on CDDP-resistant human lung cancer MOR/CPR cells
Type: cell-based
Details: gemcitabine hydrochloride alone, estimated
Description: The GI50 value in the case of gemcitabine hydrochloride alone was estimated to be about 10 μg/mL.
The cisplatin coordination compound obtained in Example 1 was prepared as a mannitol solution having a final concentration of 5% so as to contain 2.5 mg/mL in terms of CDDP. […] Furthermore, the concentrations or dosages of the cis-platin coordination compound are all indicated as the concentrations or dosages in terms of CDDP.

GI50: ~10 µg/mL
Compound: Nc1ccn([C@@H]2O[C@H](CO)[C@@H](O)C2(F)F)c(=O)n1 [gemcitabine hydrochloride, Gemcitabine hydrochloride]
